Results reported in patent US20040077667A1, “Quinazolinone derivatives” (priority 2000, published 2004).

Columns and labels:
[1] = system: Mice MPTP(N-methyl-1,2,3,6-tetrahydropyridine)-induced Parkinson's model; test: Effect on the level of striatal dopamine and its metabolite in mice MPTP-induced Parkinson's model; type: in vivo; details: 32 mg/kg, two i.p. injections, four days after last MPTP, *P < 0.05 vs MPTP
Method: C. Effect of Test Compound on the Level of Striatal Dopamine and its Metabolite in Mice MPTP([…])-induced Parkinson's model
Mice received four i.p. injections of MPTP-HCl (20 mg/kg) in saline at 2 hours intervals and two i.p. injections of Test compound at 30 minutes before 1st injection and 3rd injection of MPTP.
Four days after the last MPTP injection, mice were sacrificed, brains were quickly removed, and striata were dissected out on an ice-cold glass Petri dish. Samples were homogenized in a buffer of 0.1M perchloric acid containing isoproterenol as internal standard. HPLC with electrochemical detection was used to measure striatal levels of DA (dopamine), DOPAC (dihydroxyphenylacetic acid) and HVA (homovanilic acid).
The level of DA, DOPAC and HVA were expressed as a percentage of Normal taken as the 100%.

recombinant human PARP = recombinant human PARP (Homo sapiens, UniProt P09874); test: PARP inhibitory activity (in vitro assay); type: biochemical; details: 32P-NAD, 15 minutes at room temperature
Method: B. PARP Inhibitory Activity (In Vitro Assay)
The recombinant human PARP (5.3 mg protein/ml) were incubated with a test compound in a 100 μl reaction buffer containing the indicated concentration of 1 mCi/ml ^32P-NAD, 50 mM Tris-HCl, 25 mM MgCl2, 1 mM DTT (dithiothreitol), 0.05 mM NAD (nicotinamido adenine dinucleotide), 1 mg/ml activated DNA, pH8.0. Incubation was for 15 minutes at a room temperature and the reaction was stopped by the addition of 200 μl of ice-cold 20% tricholoroacetic acid followed by rapid filtration through GF/B filters. The filters were treated with scintillation fluid and acid-insoluble counts were measured for quantification of unit activity.
PARP inhibitory activity (%)=[1-(enzyme activity with test compound)/(enzyme activity with vehicle)]×100

Chain of recombinant human PARP (P09874 whole entry): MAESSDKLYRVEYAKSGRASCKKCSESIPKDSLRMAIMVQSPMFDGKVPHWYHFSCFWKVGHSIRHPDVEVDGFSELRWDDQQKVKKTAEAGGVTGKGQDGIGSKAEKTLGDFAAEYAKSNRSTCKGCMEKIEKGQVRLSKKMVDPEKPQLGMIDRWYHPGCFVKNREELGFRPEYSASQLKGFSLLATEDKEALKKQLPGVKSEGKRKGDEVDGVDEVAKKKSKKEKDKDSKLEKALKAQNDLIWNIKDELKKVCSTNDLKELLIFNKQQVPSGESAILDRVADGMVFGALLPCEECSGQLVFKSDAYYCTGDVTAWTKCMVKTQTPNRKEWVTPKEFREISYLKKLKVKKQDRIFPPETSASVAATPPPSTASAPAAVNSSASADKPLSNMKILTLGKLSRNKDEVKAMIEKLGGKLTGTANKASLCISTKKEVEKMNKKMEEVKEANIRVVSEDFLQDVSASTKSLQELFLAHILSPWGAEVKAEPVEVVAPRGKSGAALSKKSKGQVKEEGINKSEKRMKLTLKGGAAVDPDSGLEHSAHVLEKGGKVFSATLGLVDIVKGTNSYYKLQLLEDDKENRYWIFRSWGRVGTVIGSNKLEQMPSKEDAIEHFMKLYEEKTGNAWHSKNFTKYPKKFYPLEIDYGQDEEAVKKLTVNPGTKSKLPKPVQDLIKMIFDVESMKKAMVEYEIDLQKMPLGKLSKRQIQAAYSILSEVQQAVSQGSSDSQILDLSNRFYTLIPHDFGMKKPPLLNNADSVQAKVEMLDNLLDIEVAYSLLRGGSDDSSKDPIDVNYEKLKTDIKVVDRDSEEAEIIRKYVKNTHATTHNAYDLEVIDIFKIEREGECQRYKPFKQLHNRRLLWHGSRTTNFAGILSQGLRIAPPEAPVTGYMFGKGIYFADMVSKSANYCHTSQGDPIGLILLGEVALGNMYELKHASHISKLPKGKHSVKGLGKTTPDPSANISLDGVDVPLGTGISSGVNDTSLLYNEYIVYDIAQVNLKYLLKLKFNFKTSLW

Structure (SMILES) | Dopamine levels ([1]; striatal DA as percentage of Normal (100%)) | DOPAC levels ([1]; striatal DOPAC as percentage of Normal (100%)) | HVA levels ([1]; striatal HVA as percentage of Normal (100%)) | IC50 (recombinant human PARP) [nM]
O=c1[nH]c(CCCN2CC=C(c3ccccc3)CC2)nc2cccc(Cl)c12 [Compound A, 5-chloro-2-[3-(4-phenyl-3,6-dihydro-1(2H)-pyridinyl)propyl]-4(3H)-quinazolinone] | 59* % | 58* % | 64* % | < 500
O=c1[nH]c(/C=C/CN2CC=C(c3ccc(F)cc3)CC2)nc2c(Cl)cccc12 [Compound B, 8-chloro-2-{(1E)-3-[4-(4-fluorophenyl)-3,6-dihydro-1(2H)-pyridinyl]-1-propenyl}-4(3H)-quinazolinone] |  |  |  | < 500
O=c1[nH]c(CCCN2CC=C(c3ccncc3)CC2)nc2c(Cl)cccc12 [Compound C, 8-Chloro-2-{[4-(4-pyridinyl)-3,6-dihydro-1(2H)-pyridinyl]propyl}-4(3H)-quinazolinone] |  |  |  | < 500
Cc1cccc2c(=O)[nH]c(CCCN3CCc4c([nH]c5ccccc45)C3)nc12 [Compound D, 8-methyl-2-[3-(1,3,4,9-tetrahydro-2H-pyrido[3,4-b]indol-2-yl)propyl]-4(3H)-quinazolinone] |  |  |  | < 500
